Laboratory results published in PMC8766756, “Insights on Cancer Cell Inhibition, Subcellular Activities, and Kinase Profile of Phenylacetamides Pending 1H-Imidazol-5-One Variants” (Frontiers in Pharmacology, 2022).
“And” between values parts separate entries of the source, which are not always exact repeats. Equal values may be shown once.

What was measured:
[1] = system: HCT116 cells; assay: Cytotoxic assay in presence of antioxidant N-acetylcysteine; format: cell-based; conditions: 48 h, MTT
Text: Oxidative stress expressed as the reactive oxygen species (ROS) level is an important marker in cell death under the effect of certain cytotoxic drugs. Elevation of ROS may occur as a direct mechanism of some drugs such as Adriamycin ([Kim et al., 2019]) and trans-cinnamaldehyde ([Afanas’ev, 2011]; [Ka et al., 2003]) (safe covalent natural compound) or indirectly by the modulation of certain cellular contents ([Teppo et al., 2017]; [Perillo et al., 2020]). The involvement of ROS elevation and oxidative stress in the cytotoxic activities of KIM-161 on HCT116 was assessed. In this assay, the antioxidant N-acetylcysteine (NAC) was added at a very high concentration (5 mM) to check if it reverses the cytotoxic activities of KIM-161 on HCT116.
FIGURE 10 Effect of antioxidant pretreatment on viability of HCT116 treated with KIM-161. […] Cell viability was expressed as a percentage of vehicle control and was measured by the MTT assay (average of two independent experiments). Statistical significance was determined by two-way ANOVA using Šídák’s multiple comparisons test. * = p < 0.05; *** = p ≤ 0.001; **** = p < 0.0001.
HCT116 cells were seeded at a density of 5 × 10^4 cells/well in 96-well plates and left overnight to adhere. […] Cell viability was expressed as a percentage of the vehicle control (1% v/v ethanol) and was assessed using the MTT assay (data are expressed as mean ± SEM). […]

[2] = molecular target: T1, CCK4/PTK7 (Q13308) (Homo sapiens, UniProt Q13308); assay: PamChip tyrosine kinase microarray; format: biochemical; conditions: 0.1 µM, HL60 lysate
T1 construct: purchased PamGene (PamChip PTK array, Upstream Kinase Analysis)
T1 sequence (Q13308 31-1070): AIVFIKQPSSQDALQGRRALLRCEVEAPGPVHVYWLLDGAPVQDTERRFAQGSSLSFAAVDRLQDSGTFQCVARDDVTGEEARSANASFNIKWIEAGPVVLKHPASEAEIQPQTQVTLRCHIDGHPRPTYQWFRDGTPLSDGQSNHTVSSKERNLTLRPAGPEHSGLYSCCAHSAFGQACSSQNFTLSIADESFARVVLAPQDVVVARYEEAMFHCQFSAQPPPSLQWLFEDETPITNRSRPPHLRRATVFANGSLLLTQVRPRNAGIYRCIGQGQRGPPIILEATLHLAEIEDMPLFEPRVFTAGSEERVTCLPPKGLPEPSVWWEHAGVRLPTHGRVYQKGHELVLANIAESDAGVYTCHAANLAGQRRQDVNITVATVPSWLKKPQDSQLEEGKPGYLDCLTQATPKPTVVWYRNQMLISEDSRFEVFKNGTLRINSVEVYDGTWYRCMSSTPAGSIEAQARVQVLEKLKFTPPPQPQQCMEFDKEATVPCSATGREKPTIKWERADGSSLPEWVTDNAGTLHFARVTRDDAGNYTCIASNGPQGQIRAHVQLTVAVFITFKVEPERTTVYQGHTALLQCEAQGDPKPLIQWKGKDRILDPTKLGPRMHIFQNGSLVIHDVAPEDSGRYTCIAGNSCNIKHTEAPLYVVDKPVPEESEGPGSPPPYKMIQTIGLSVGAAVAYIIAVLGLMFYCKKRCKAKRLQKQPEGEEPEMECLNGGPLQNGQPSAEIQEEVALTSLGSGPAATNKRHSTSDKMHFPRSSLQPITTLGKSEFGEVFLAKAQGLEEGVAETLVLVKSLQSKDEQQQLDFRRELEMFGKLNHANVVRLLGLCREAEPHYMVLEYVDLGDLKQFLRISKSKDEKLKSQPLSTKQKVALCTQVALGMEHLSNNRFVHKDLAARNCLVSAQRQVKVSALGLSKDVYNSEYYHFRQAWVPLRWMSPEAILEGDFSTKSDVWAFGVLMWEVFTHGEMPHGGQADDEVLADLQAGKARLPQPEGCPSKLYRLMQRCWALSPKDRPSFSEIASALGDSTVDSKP
How it was run: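 HL60 (AML) cell lysate was spiked with compound at 0.001, 0.01, 0.1, 1, 10 and 50 µM, or 2% v/v DMSO as control, then profiled in technical replicates on a tyrosine kinase peptide array of 196 phosphosites. Kinase activity was inferred from peptide-set changes using an upstream kinase tool.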

Question: Which results are given for `COc1ccc(/C=C2\N=C(C)N(c3ccc(CC(=O)NCc4ccccc4)cc3)C2=O)cc1` [Compound 4c, (Z)-N-Benzyl-2-(4-(4-(4-methoxybenzylidene)-2-methyl-5-oxo-4,5-dihydro-1H-imidazol-1-yl)phenyl)acetamide]?
Answer: change of cytotoxic effect by NAC addition ([1]; HCT116, KIM-161 0.5 µM, NAC 5 mM pretreatment 1 h): slightly altered; change of cytotoxic effect by NAC addition ([1]; HCT116, increasing KIM-161 concentration (1.0, 5.0 µM), NAC 5 mM): higher involvement of this factor in the anticancer effect; Mean Significance Score [2]: 1.989; Mean Specificity Score [2]: 0.5841; Mean Final score (Kinase score) ([2]; listed as KIM-161): 2.60 and 2.5986
